Experimental data from US20240358734A1, “DISCOVERY OF NOVEL TRPV1 CHANNEL BLOCKERS BY HIGH-THROUGHPUT SCREENING OF MARINE NATURAL PRODUCTS” (The Hong Kong University of Science and Technology, priority 2023, published 2024).
pIC50: −log10 of the molar value. “Also recorded” adds a separate entry of the source.

How the values were obtained:
human TRPV1 = target: T1, human TRPV1 (Homo sapiens, UniProt Q8NER1); test: High-throughput FM4-64 dye-uptake assay in HEK293 cells transfected with hTRPV1-pIRES-eGFP; assay type: cell-based; settings: for inhibitory effect on TRPV1 (relative n2/n1 ratio compared to vehicle control): screening, 5 μM FM4-64 dye and 100 μg/ml test compounds for 3 minutes, vs DMSO; for pIC50: 1 μM capsaicin, 5 μM FM4-64, 3-minute incubation, cell-based system; for mean n2/n1 ratio: HEK293 cells transfected with human TRPV1, 96-well plate, groups incubated with drug, compared to capsaicin alone
T1 construct: expressed in transfected cells; host or cells: HEK293 (HEK293T) cells
Method: To screen potential modulators of TRPV1, a high-throughput screening system based on FM4-64 dye uptake was established using HEK293 cells transfected with hTRPV1-pIRES-eGFP and cultured in 96-well plates. The cells are incubation with 5 μM FM4-64 dye and 100 μg/ml test compounds for 3 minutes, washed, imaged using Zeiss Celldiscoverer 7, and analyzed using Image J (FIG. 2A). The number of GFP positive cells which is an indicator of the number of TRPV1 expressed cells, is calculated as n1 and the number of cells which are both GFP positive and dye uptake positive is calculated as n2 (FIG. 2B). The ratio (n2/n1) is a functional indicator of TRPV1 channel activity.
The performance of cC and cF with capsaicin and capsazepine, with HEK293 cells transfected with human TRPV1 and cultured on a 96-well plate are compared by the n2/n1 ratio of the groups incubated with cC and cF to those incubated with capsaicin alone and capsazepine (FIG. 3B).
The assay involves mixing 1 μM of capsaicin with varying concentrations of cC and 5 μM of FM4-64, and the mixture is added to each well for a 3-minute incubation.
Transfected HEK293 cells in a 96-well plate were divided into 8 groups, each containing 12 wells. 10-11 wells of each group were set as experimental groups in which cells were incubated with compound mixtures. 1-2 wells of each group were set as control groups in which cells were incubated with control solution A or B. One group was operated simultaneously to reduce the difference between wells. Cells in DMEM were washed with CaCl2-HBSS buffer once to remove the remnant medium. Subsequently, cells were incubated with the compound mixture or control solution for 2-3 min at RT. After FM4-64 incubation, cells were washed with CaCl2-HBSS buffer thrice to remove FM4-64 residuals. A group of cells was subjected to Zeiss Celldiscoverer 7 for fluorescent imaging.
To separate GFP and FM4-64 fluorescent dye, we used an LED light source at 470 nm to excite the GFP channel and light at 567 nm to excite the FM4-64 channel. 5× objective (Plan Apo, dry, autocorrect, NA 0.35), Orca camera (Orca Flash 4.0 v3), CO2 Module S1 incubation system, and Zenblue software were used for image recording. Each image comprises a GFP channel, FM4-64 channel, and bright field channel. And 4 non-overlapping images were taken for each well using the Tile function at Zenblue.
All images were analysed with ImageJ software. The same threshold would be applied to all the images in the same experiment group to select GFP-positive and dye uptake-positive cells. Cell number was calculated by the “Analyze particle” function in ImageJ. GFP-positive and dye uptake-positive cells were selected using the “AND” function in the image calculator. The number of GFP-positive cells (TRPV1 expressed cells) would be calculated as N1, and the number of cells that are both GFP positive and dye uptake positive would be calculated as N2. The ratio of […] represents the percentage of TRPV1 expressed cells that uptake FM4-64 fluorescent dye and would be used to analyse TRPV1's function.

TRPV1 channel (hTRPV1) = target: T2, TRPV1 channel (hTRPV1) (Homo sapiens, UniProt Q8NER1); test: Excised inside-out patch-clamp of 3T3 cells transfected with hTRPV1-IRES-EGFP; assay type: cell-based; settings: for inhibition of TRPV1 channels in patch-clamp macroscopic current: 10 nM capsaicin activation followed by 20 μM drug
T2 construct: expressed in transfected cells; host or cells: 3T3 cells
From the text: A cell-based high-throughput drug screening method identifies potential TRPV1 inhibitors using the FM4-64 dye-uptake assay though the assay cannot conclusively distinguish the specific mechanism of blockage as numerous factors, such as other channels, pinocytosis, and drug-induced membrane potential alteration via pore-forming, can contribute to changes in FM4-64 dye uptake. A high-resolution patch clamp assays using an excised inside-out recording configuration allows investigation of the potential inhibitory effect of cC and cF on TRPV1, where changes in the patch-clamp macroscopic current before and after drug application indicates drug effectiveness.
3T3 cells were recorded using excised inside-out voltage clamp. Patch electrodes with a resistance of 4 MΩ±1.1 MΩ were pulled on a glass pipette puller (DMZ Zeitz-Puller). 3T3 cells were first transferred to a patch container to minimize the use of drugs and transfected with hTRPV1-IRES-EGFP. Immediately before assay, the cell medium was changed to PBS as well as the pipette medium. The dish was connected to the ground electrode via the salt bridge. Glass pipette filled with PBS was inserted into the patch electrode. A positive pressure of around 40 mmHg was applied to the pipette and soaked into the cell medium. The offset was tuned to near 0 pA when the holding potential was 0 mV. Pipette was moved to the cell, showing green-fluorescent and barely attached to the cell membrane. Then, removing the positive pressure in the pipette and changing the holding potential to −80 mV, forming a tight seal between the cell membrane and the pipette. The seal resistance should be >=1GQ. The sealed membrane was excised to form a patch in an inside-out configuration. The recording started with a positive holding potential.
The patch was activated by 10 nM of capsaicin to activate TRPV1 channels fully. After full activation, 20 μM of drugs (cC) was applied to test for their ability of TRPV1 inhibition. […]
Traces were collected with the pClamp10 software suite, and the patch-clamp macroscopic current was recorded. […]

[1] = test system: capsaicin-/TRPV1-induced pain sensation; test: Capsaicin-induced pain-sensation assay (paw-licking) in mice; assay type: in vivo, mice (C57B/6J); settings: for mean licking time: drug mixed with capsaicin injected into right hind paw, 5 minutes observation
Method: The total time spent paw-licking, a typical nociception behaviour in mice, was recorded as an indicator of TRPV1 activation and compared with a positive control group injected with capsaicin alone. The potency of the injected drugs is related to the reduction of licking time.
The mice used were 4-6 weeks old C57B/6J provided by APCF in HKUST. All animal procedures were approved by the University Committee on Research Practices of the Hong Kong University of Science and Technology (Ethics protocol number: 2016074).
Capsaicin-induced pain-sensation assays in mice were performed where 10 μL of capsaicin (300 μM) or solvent control was injected into the top of the hind paw by using a fine (30-G) needle; capsaicin was dissolved in 0.3% ethanol and 3% (v/v) dimethyl sulfoxide (DMSO). The mice were wrapped gently in the investigator's hand and maintained on their back, with their snout pointing toward the small finger of the investigator; in this position, the mice remained unagitated during the injection. Mouse behavior was recorded using a digital camera (GoPro5).
The observation cage was made with the transparent large cage liner from APCF with bedding and food at the bottom. Mice were placed in the observation cage for 10 minutes at least 1 hour before the experiment was conducted to reduce the stress bought on by an unfamiliar environment. During the experiment, mice were captured by the left hand using the index finger and thumb to hold their neck. Then gradually pick up the mice and use the little finger to anchor its tail, such that its right hind paw will step on the ring finger or middle finger. Drugs were prepared in a 1.5 mL test tube. For the control group, 1 mM stock Capsaicin in DMSO is diluted to 100 μM using PBS. For the testing group, drugs originally dissolved in DMSO were diluted to the desired concentration in addition to capsaicin.
The injection was performed by shaking and spinning the drug-containing test tube for an even concentration of drug. A BD Ultra-fine 6 mm needle was used to suck out the 10 μL of drug from the needle. After removing excess air bubbles, 10 μL of the drug was injected into the captured mice's back of the right hind paw. The needle was removed slowly to inhibit blood and drug from leaking from the wound. After injection, mice were placed in the observation cage for 5 minutes to record the pain behavior. Video was filmed using a camera with the configuration of HD 30 fps. The environmental noise, light, and temperature are constant throughout the record. The mice's behavior was identified by experienced individuals who mapped pain behavior in seconds throughout the 5 minutes.

T1 sequence (Q8NER1 whole entry): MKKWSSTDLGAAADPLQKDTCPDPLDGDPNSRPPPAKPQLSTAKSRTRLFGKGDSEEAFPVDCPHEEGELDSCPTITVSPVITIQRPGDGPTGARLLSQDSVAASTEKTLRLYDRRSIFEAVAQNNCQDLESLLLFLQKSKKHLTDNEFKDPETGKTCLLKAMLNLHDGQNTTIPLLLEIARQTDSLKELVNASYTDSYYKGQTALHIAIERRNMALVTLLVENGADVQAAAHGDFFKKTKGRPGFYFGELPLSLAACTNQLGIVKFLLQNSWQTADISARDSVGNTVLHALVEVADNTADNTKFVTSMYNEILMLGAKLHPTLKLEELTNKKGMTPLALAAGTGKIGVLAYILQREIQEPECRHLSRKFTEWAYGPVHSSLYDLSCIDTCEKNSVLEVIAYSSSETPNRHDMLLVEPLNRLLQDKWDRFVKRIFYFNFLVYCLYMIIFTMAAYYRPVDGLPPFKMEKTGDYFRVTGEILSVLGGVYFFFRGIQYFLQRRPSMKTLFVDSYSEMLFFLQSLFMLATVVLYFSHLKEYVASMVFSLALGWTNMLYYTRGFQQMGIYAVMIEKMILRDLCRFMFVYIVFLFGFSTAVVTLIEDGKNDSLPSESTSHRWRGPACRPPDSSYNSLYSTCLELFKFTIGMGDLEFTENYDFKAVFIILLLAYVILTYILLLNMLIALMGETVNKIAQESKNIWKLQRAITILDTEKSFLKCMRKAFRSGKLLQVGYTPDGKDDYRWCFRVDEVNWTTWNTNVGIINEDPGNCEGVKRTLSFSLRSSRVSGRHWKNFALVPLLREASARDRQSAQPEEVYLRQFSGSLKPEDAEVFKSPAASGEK
T2 sequence (Q8NER1 whole entry): as above

Row | Compound | inhibitory effect on TRPV1 (relative n2/n1 ratio compared to vehicle control) (human TRPV1) | pIC50 (human TRPV1) | mean n2/n1 ratio (human TRPV1) | inhibition of TRPV1 channels in patch-clamp macroscopic current (TRPV1 channel (hTRPV1)) | mean licking time [1] [s] | also measured
1 | CC(=O)Cc1cc2c(c(O)c1C(=O)O)-c1c(c(O)c3oc4c(O[C@@H]5OC(C(=O)O)=C[C@H](O)[C@H]5O)cccc4c(=O)c3c1O)CC2 [cA, chrexanthomycin A] | inhibitory effects on TRPV1 |  |  |  |  | 
2 | COc1c2c(c(O)c3c(=O)c4cccc(O[C@@H]5OC(C(=O)O)=C[C@H](O)[C@H]5O)c4oc13)-c1c(cc(CC(C)=O)c(C(=O)O)c1O)CC2 [cB, chrexanthomycin B] | inhibitory effects on TRPV1 |  |  |  |  | 
3 | C[C@@]1(O)Cc2cc3c(c(O)c2C(=O)O1)-c1c(c(O)c(O)c2c(=O)c4cccc(O[C@@H]5OC(C(=O)O)=C[C@H](O)[C@H]5O)c4oc12)CC3 [cF, chrexanthomycin F] | inhibitory effects on TRPV1 | < 5.70 | 0.068 | effectively inhibit TRPV1 channels |  | 
4 | COc1cc(CNC(=O)CCCC/C=C/C(C)C)ccc1O [capsaicin, reference compound] |  |  |  |  |  | mean licking time, capsaicin alone group ([1]; capsaicin alone injected into right hind paw (positive control)): over 50 seconds; mean n2/n1 ratio, capsaicin group (human TRPV1; capsaicin alone, HEK293 cells transfected with human TRPV1): 0.254
5 | Oc1cc2c(cc1O)CN(C(=S)NCCc1ccc(Cl)cc1)CCC2 [capsazepine, reference compound] |  |  | 0.0667 |  | 18 | 
6 | chrexanthomycin C [cC] | inhibitory effects on TRPV1; also recorded: lowest relative n2/n1 ratio | 6.00 to 6.12 | 0.0307 | effectively inhibit TRPV1 channels | 19 | efficacy in blocking capsaicin-induced pain sensation relative to capsazepine ([1]; mouse model, ANOVA with post hoc test): as effective as capsazepine; average relative macroscopic current after drug addition (TRPV1 channel (hTRPV1); fully capsaicin-activated state (10 nM capsaicin), 20 μM drug, inside-out patch): 0.285
